# Data published in ChEMBL document CHEMBL3627700, “Discovery of novel N-aryl piperazine CXCR4 antagonists” (Bioorg Med Chem Lett, 2015).
# Tests used:
# [1] = test system: Human immunodeficiency virus 1; test: Antiviral activity against HIV1 3B assessed as inhibition of viral attachment to human MAGI cells; format: functional, organism-based; details: Human immunodeficiency virus 1, 3B
# [2] = Cytotoxicity against human MAGI cells; format: cell-based; details: read-out: TC50 (the source's name)
# [3] = molecular target: T1, C-X-C chemokine receptor type 4 (Homo sapiens, UniProt P61073); test: Antagonist activity at CXCR4 in human Chem-1 cells assessed as inhibition of CXCL12-induced calcium flux; format: functional, cell-based
# T1 sequence (P61073 whole entry): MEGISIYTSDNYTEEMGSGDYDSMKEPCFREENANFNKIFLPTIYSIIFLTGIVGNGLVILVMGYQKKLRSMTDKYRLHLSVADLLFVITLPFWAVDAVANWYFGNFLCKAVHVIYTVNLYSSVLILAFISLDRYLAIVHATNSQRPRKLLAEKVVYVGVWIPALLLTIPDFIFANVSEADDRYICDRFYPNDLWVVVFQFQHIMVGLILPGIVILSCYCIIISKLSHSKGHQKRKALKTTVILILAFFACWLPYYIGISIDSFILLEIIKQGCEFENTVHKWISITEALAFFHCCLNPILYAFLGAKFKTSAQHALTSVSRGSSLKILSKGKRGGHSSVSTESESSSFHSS
# [4] = Cytotoxicity against human Chem1 cells; format: cell-based; details: read-out: TC50 (the source's name)
# CYP2C19 = CYP2C19 (Homo sapiens, UniProt P33261); test: Inhibition of human CYP2C19 at 1 uM; format: ADME
# Chain of CYP2C19 (P33261 whole entry): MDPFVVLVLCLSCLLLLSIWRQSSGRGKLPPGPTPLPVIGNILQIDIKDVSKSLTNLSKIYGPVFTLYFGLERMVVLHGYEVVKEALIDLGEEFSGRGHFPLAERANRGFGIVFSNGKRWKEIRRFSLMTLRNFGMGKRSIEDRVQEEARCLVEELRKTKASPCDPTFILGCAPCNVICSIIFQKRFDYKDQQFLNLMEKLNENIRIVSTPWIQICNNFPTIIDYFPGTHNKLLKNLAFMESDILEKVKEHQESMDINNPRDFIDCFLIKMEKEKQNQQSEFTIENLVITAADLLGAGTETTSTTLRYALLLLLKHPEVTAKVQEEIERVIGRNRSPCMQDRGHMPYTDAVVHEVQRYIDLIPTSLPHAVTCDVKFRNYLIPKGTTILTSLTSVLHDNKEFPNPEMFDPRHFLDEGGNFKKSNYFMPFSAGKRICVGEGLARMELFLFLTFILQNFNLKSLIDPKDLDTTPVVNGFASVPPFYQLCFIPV
# CYP2D6 = CYP2D6 (Homo sapiens, UniProt P10635); test: Inhibition of human CYP2D6 at 1 uM
# Chain of CYP2D6 (P10635 whole entry): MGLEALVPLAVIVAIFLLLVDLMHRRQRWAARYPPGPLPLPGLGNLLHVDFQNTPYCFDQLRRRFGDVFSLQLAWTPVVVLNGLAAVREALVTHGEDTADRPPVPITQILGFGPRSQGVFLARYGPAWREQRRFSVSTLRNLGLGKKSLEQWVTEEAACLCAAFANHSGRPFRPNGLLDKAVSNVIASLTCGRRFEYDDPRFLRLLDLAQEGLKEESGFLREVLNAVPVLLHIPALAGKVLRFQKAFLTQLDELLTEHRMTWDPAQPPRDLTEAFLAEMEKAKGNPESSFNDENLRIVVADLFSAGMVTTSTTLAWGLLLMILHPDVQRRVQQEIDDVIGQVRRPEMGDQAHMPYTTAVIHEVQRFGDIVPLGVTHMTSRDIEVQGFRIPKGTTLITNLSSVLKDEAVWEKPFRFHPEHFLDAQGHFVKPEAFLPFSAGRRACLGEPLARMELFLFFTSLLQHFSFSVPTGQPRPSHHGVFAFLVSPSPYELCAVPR
# [5] = Selectivity ratio of IC50 for CXCR4 in human Chem-1 cells to IC50 for HIV1 3B assessed as inhibition of viral attachment to human MAGI cells; format: cell-based
# [6] = test system: Human immunodeficiency virus 1; test: Antiviral activity against HIV1 3B infected in PBMC; format: functional, organism-based; details: Human immunodeficiency virus 1, 3B
# CYP3A4 = CYP3A4 (Homo sapiens, UniProt P08684); test: Inhibition of human CYP3A4 at 1 uM
# Chain of CYP3A4 (P08684 whole entry): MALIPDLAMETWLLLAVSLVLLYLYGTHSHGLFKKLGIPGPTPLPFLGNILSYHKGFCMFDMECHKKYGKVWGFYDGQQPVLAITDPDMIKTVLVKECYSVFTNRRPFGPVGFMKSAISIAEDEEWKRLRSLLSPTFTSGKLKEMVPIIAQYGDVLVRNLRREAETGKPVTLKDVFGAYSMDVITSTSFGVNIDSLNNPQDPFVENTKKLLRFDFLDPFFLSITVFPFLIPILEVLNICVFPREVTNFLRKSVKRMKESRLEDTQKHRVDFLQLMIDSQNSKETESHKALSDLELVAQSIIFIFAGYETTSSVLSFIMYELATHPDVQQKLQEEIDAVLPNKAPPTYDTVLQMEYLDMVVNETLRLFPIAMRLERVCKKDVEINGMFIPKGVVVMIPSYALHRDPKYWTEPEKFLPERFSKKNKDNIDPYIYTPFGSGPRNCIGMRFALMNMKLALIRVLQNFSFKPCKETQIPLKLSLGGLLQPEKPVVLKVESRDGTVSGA
# hERG (KCNH2) [7] = molecular target: T2, hERG (KCNH2) (Homo sapiens, UniProt Q12809); test: Displacement of [3H]-dofetilide from human ERG in HEK293 cells at 1 uM; format: cell-based; details: HEK293 cells that express hERG, probe [3H]-dofetilide
# T2 sequence (Q12809 whole entry): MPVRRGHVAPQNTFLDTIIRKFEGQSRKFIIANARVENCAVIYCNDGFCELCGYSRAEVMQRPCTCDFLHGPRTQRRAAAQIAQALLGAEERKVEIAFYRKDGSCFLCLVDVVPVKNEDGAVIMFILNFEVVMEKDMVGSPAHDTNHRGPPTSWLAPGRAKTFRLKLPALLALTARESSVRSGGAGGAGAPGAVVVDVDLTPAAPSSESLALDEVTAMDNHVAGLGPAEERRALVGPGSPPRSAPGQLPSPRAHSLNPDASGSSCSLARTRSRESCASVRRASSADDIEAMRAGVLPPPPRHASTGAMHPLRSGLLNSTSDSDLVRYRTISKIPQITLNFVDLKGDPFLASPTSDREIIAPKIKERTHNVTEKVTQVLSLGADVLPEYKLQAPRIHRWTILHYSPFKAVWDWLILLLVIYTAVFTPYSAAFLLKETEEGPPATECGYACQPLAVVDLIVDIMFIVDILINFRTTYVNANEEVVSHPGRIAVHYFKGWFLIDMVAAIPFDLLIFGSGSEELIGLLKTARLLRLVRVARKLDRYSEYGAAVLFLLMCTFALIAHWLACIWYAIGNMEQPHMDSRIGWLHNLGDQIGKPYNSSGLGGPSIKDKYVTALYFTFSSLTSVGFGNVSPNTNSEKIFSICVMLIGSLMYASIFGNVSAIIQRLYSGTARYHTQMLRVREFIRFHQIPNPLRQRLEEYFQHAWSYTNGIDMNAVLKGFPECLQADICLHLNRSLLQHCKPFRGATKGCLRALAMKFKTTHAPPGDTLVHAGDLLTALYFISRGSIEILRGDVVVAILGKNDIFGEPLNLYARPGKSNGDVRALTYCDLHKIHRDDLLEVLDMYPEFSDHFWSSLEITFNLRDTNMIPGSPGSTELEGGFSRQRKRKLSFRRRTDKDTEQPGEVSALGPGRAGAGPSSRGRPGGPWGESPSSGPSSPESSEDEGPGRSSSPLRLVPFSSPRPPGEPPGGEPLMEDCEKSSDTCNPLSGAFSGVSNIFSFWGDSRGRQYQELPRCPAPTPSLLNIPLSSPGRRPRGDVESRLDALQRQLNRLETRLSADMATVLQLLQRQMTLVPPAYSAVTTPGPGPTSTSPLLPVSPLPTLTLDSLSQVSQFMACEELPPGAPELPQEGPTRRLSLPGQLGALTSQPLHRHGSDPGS
# hERG (KCNH2) [8] = molecular target: T2, hERG (KCNH2); test: Displacement of [3H]-dofetilide from human ERG in HEK293 cells at 10 uM; format: cell-based; details: HEK293 cells that express hERG, probe [3H]-dofetilide
# [9] = molecular target: T1, C-X-C chemokine receptor type 4
# Description: Displacement of [125I]-SDF-1 from CXCR4 (unknown origin)
IC50 [1],IC50 [3],SMILES,CC50 [2],CC50 [4],also measured
310 nM,255 nM,NCCCCN(C[C@H]1CNCCN1)[C@H]1CCCc2cccnc21,> 10000 nM,> 10000 nM,
50 nM,2 nM,NCCCCN(C[C@H]1CN(S(=O)(=O)c2ccc(Cl)cc2)CCN1)[C@H]1CCCc2cccnc21,> 10000 nM,> 10000 nM,
350 nM,,NCCCCN(C[C@H]1CN(C(=O)Nc2ccccc2)CCN1)[C@H]1CCCc2cccnc21,> 10000 nM,> 10000 nM,
3440 nM,39 nM,NCCCCN(C[C@H]1CN(S(=O)(=O)c2cc3ccccc3s2)CCN1)[C@H]1CCCc2cccnc21,> 10000 nM,> 10000 nM,
> 100000 nM,,NCCCCN(C[C@@H]1CNCCN1C(=O)c1ccccc1)[C@H]1CCCc2cccnc21,> 10000 nM,> 10000 nM,
4600 nM,71 nM,NCCCCN(C[C@H]1CN(S(=O)(=O)c2ccc3ccccc3c2)CCN1)[C@H]1CCCc2cccnc21,> 10000 nM,> 10000 nM,
60 nM,2 nM,NCCCCN(C[C@H]1CN(C(=O)c2ccccc2)CCN1)[C@H]1CCCc2cccnc21,> 10000 nM,> 10000 nM,
,2 nM,NCCCCN(C[C@H]1CN(S(=O)(=O)c2ccccc2)CCN1)[C@H]1CCCc2cccnc21,> 10000 nM,> 10000 nM,
,,NCCCCN(Cc1nc2ccccc2[nH]1)[C@H]1CCCc2cccnc21 [MAVORIXAFOR],,,inhibition at 1 µM (CYP2C19): 20%; inhibition at 1 µM (CYP2D6): 100%
340 nM,18 nM,NCCCCN(C[C@H]1CN(C(=O)OCc2ccccc2)CCN1)[C@H]1CCCc2cccnc21,> 10000 nM,> 10000 nM,
1350 nM,,NCCCCN(C[C@@H]1CN(C(=O)OCc2ccccc2)CCN1)[C@H]1CCCc2cccnc21,> 10000 nM,> 10000 nM,
720 nM,130 nM,NCCCCN(CC1CN(c2ccccc2)CCN1)[C@H]1CCCc2cccnc21 (mixture of isomers),> 10000 nM,> 10000 nM,
150 nM,35 nM,NCCCCN(C[C@@H]1CN(C(=O)c2ccco2)CCN1)[C@H]1CCCc2cccnc21,> 10000 nM,> 10000 nM,
210 nM,,NCCCCN(CC1CN(C(=O)c2ccco2)CCN1)[C@H]1CCCc2cccnc21 (mixture of isomers),> 10000 nM,> 10000 nM,
> 100000 nM,,NCCCCN(C[C@H]1CNCCN1C(=O)c1ccccc1)[C@H]1CCCc2cccnc21,> 10000 nM,> 10000 nM,
20 nM,6 nM,NCCCCN(C[C@@H]1CN(C(=O)c2ccccc2)CCN1)[C@H]1CCCc2cccnc21,> 10000 nM,> 10000 nM,Ratio IC50 [5]: 0.3; IC50 [6]: 88 nM; inhibition at 1 µM (CYP2C19): 2%; inhibition at 1 µM (CYP2D6): 19%; inhibition at 1 µM (CYP3A4): 0%; inhibition at 1 µM (hERG (KCNH2) [7]): 18%; inhibition at 10 µM (hERG (KCNH2) [8]): 55%
,230 nM,NCCCCN(C[C@H]1CN(Cc2ccccc2)CCN1)[C@H]1CCCc2cccnc21,> 10000 nM,> 10000 nM,
,190 nM,NCCCCN(C[C@@H]1CN(Cc2ccccc2)CCN1)[C@H]1CCCc2cccnc21,> 10000 nM,> 10000 nM,IC50 [9]: 2920 nM
1100 nM,1200 nM,NCCCCN(C[C@@H]1CNCCN1)[C@H]1CCCc2cccnc21,> 10000 nM,> 10000 nM,

SMILES,IC50 [1],IC50 [3],CC50 [2],CC50 [4],also measured
NCCCCN(C[C@@H]1CN(S(=O)(=O)c2ccccc2)CCN1)[C@H]1CCCc2cccnc21,,23 nM,> 10000 nM,> 10000 nM,inhibition at 1 µM (CYP2C19): 2%; inhibition at 1 µM (CYP2D6): 41%; inhibition at 1 µM (CYP3A4): 0%; inhibition at 1 µM (hERG (KCNH2) [7]): 37%; inhibition at 10 µM (hERG (KCNH2) [8]): 79%
